What is called IC50 is the concentration that inhibits the measured activity by half.

Among the data in US11655235B2, “Pyrrolidine and piperidine compounds” (YUHAN CORPORATION, priority 2019, dated 2023) are IC50 values, retold here.

One assay addresses T1, Recombinant human FAP (Homo sapiens, UniProt Q12884).
T1 construct: purchased R&D systems
T1 sequence (Q12884 1-760): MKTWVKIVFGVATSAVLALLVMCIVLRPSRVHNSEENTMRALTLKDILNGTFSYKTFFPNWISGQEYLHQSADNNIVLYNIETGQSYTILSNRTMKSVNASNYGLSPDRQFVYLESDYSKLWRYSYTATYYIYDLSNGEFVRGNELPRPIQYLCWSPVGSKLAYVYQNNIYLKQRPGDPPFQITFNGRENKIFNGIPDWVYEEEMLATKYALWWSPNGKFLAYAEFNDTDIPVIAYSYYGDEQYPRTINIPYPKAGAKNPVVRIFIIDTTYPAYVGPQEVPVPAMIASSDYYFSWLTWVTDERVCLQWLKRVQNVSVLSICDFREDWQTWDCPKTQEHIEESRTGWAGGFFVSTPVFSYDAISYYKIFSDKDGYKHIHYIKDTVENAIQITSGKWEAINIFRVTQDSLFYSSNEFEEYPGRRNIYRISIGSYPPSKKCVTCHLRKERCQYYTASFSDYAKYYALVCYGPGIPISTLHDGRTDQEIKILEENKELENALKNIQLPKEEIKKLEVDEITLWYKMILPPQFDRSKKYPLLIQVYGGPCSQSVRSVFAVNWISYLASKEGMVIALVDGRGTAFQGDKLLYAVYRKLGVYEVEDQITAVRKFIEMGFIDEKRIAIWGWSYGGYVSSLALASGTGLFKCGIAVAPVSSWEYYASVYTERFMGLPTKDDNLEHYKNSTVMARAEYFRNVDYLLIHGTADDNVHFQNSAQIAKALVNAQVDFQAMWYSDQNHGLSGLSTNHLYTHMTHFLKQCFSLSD
The experiment in a line: FAP FRET assay, FGF21-sequence FRET peptide substrate. Format: biochemical. The note with it: FRET peptide with human FGF21 sequence, 6 μM, 37° C. On the procedure:
The compounds according to the present technology were evaluated in terms of the inhibitory effect on the activity of dipeptidyl peptidases including FAP by using a substrate producing fluorescent substances upon enzymatic decomposition. The test was conducted at 25° C. to get a final reaction volume of 100 μL in a 96 black well plate. […] Briefly, the test compounds were dissolved in dimethyl sulfoxide (DMSO) at a concentration of 20 mM and then subjected to serial dilution, thereby creating an 8 point curve. As for the control group, a 6 point curve created by serial dilution of Talabostat in the same buffer solution was used. Fluorescence intensity was measured using a microplate reader (Flexstation3, Molecular Devices) under the wavelength condition exciting at 380 nm and reading the emission at 460 nm. The inhibitory effect of the test compounds was measured as a decrease (%) in the signal rate as compared to the control group without any inhibitor. Data was fixed to a logistic model with four variables and IC50 value was calculated using GraphPad Prism program. For the FAP FRET assay, recombinant human FAP (R&D systems) was diluted with 50 mM HEPES (pH 7.2) buffer comprising 150 mM of sodium chloride, 0.1 mg/ml of bovine serum albumin (BSA) and 1 mM EDTA to be 10 ng per final reaction. The test compounds were subjected to serial dilution in a buffer under the condition containing up to 0.1% of DMSO. FRET peptides containing human FGF21 sequence ([…]) conjugated with HyLite Fluor 488 and dark quencher QXL 520 (Anaspec) was used as a substrate. By dissolving in DMSO and then diluting in the same buffer, the substrate was added to be 6 μM per final reaction. All reactions of FRET assay was conducted at 37° C.

The next assay deals with DPP4 (Homo sapiens, UniProt P27487). Briefly: DPP4 inhibition, fluorogenic substrate H-Gly-Pro-AMC. On the set-up: purchased R&D Systems. It counts as biochemical. The note with it: recombinant human DPP4.
Chain of DPP4 (P27487 whole entry): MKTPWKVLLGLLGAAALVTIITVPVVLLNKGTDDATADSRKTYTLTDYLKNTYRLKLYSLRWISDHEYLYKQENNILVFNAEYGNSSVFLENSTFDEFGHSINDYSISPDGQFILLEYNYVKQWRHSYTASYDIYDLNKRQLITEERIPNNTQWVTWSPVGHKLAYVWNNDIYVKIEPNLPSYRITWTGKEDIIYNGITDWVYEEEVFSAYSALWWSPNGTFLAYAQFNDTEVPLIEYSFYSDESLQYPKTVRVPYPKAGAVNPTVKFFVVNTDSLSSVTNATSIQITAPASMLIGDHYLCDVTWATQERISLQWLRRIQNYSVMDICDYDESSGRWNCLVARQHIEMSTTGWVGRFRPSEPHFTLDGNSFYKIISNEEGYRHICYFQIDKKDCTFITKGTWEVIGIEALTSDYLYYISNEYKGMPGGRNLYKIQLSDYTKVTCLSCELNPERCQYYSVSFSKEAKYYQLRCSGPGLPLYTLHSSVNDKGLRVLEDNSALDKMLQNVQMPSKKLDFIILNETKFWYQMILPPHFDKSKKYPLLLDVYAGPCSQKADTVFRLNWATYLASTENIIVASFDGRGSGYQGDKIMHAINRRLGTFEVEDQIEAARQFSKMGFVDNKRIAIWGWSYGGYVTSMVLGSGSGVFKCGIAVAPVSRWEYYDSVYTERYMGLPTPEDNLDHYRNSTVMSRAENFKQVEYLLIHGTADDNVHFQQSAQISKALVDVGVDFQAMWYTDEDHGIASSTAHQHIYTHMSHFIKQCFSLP

Regarding `COc1ccc2cc(N(C)C3CCN(CC(=O)N4C[C@@H](F)C[C@H]4C#N)CC3)cnc2c1` [Example 328, (2S,4S)-4-fluoro-1-(2-(4-((7-methoxyquinolin-3-yl)(methyl)amino)piperidin-1-yl)acetyl)pyrrolidine-2-carbonitrile], the results for the IC50 at Recombinant human FAP and at DPP4 were 6 nM and 21400 nM, respectively.

On to `Cc1ccc2ncc(NC3CCN(CC(=O)N4C[C@@H](F)C[C@H]4C#N)CC3)cc2c1` [Example 363, (2S,4S)-4-fluoro-1-[2-[4-[(6-methyl-3-quinolyl)amino]-1-piperidyl]acetyl]pyrrolidine-2-carbonitrile], for which the IC50 at Recombinant human FAP is 30.6 nM; at DPP4 it was at least 10000 nM.

For `Cc1ccc2ncc(N(C)C3CCN(CC(=O)N4CCC[C@H]4C#N)CC3)cc2c1` [Example 322, (2S)-1-[2-[4-[methyl-(6-methyl-3-quinolyl)amino]-1-piperidyl]acetyl]pyrrolidine-2-carbonitrile], the IC50 was 10.3 nM at Recombinant human FAP and at least 100000 nM on DPP4.

Turning to `N#C[C@@H]1C[C@H](F)CN1C(=O)CN1CC[C@H](Nc2cnc3ncccc3c2)C1` [Example 272, (2S,4S)-4-fluoro-1-[2-[(3S)-3-(1,8-naphthyridin-3-ylamino)pyrrolidin-1-yl]acetyl]pyrrolidine-2-carbonitrile], the values for the IC50 at Recombinant human FAP and at DPP4 were 16.3 nM and 2800 nM, respectively.

Turning to `N#C[C@@H]1CCCN1C(=O)CN1CC[C@@H](Nc2cc(Cl)c3ncccc3c2)C1` [Example 222, (2S)-1-[2-[(3R)-3-[(8-chloro-6-quinolyl)amino]pyrrolidin-1-yl]acetyl]pyrrolidine-2-carbonitrile], the values for the IC50 on Recombinant human FAP and at DPP4 were 2.1 nM and 11800 nM, respectively.

Turning to `COc1ccnc2ccc(N[C@@H]3CCN(CC(=O)N4CCC[C@H]4C#N)C3)cc12` [Example 219, (2S)-1-[2-[(3R)-3-[(4-methoxy-6-quinolyl)amino]pyrrolidin-1-yl]acetyl]pyrrolidine-2-carbonitrile], the IC50 on Recombinant human FAP is 16.8 nM; at DPP4, 13000 nM.

`N#C[C@@H]1C[C@H](F)CN1C(=O)CN1CCC(Nc2ccnc3cccnc23)CC1` [Example 380, (2S,4S)-4-fluoro-1-[2-[4-(1,5-naphthyridin-4-ylamino)-1-piperidyl]acetyl]pyrrolidine-2-carbonitrile]: the IC50 was determined as 77.1 nM at Recombinant human FAP and 8160 nM at DPP4.

Regarding `N#Cc1ccc2c(OC3CCN(CC(=O)N4CCC[C@H]4C#N)CC3)cccc2n1` [Example 430, 5-[[1-[2-oxo-2-[(2S)-2-cyanopyrrolidin-1-yl]ethyl]-4-piperidyl]oxy]quinoline-2-carbonitrile], the IC50 worked out at 24.5 nM at Recombinant human FAP and 29400 nM at DPP4.

In the case of `COc1ccc2ncc(N(C)C3CCN(CC(=O)N4CCC[C@H]4C#N)CC3)cc2c1` [Example 323, (S)-1-(2-(4-((6-methoxyquinolin-3-yl)(methyl)amino)piperidin-1-yl)acetyl)pyrrolidine-2-carbonitrile], the IC50 on Recombinant human FAP was 5.8 nM; on DPP4 it was at least 100000 nM.

`COc1ccc2nccc(N[C@@H]3CCN(CC(=O)N4C[C@@H](F)C[C@H]4C#N)C3)c2c1` [Example 188, (2S,4S)-4-fluoro-1-[2-[(3R)-3-[(6-methoxy-4-quinolyl)amino]pyrrolidin-1-yl]acetyl]pyrrolidine-2-carbonitrile]: the IC50 at Recombinant human FAP turned out to be 21.5 nM; on DPP4, 15200 nM.

Consider `COc1cccc2cc(NC3CCN(CC(=O)N4C[C@@H](F)C[C@H]4C#N)CC3)cnc12` [Example 367, (2S,4S)-4-fluoro-1-[2-[4-[(8-methoxy-3-quinolyl)amino]-1-piperidyl]acetyl]pyrrolidine-2-carbonitrile], for which the IC50 on Recombinant human FAP is 28.1 nM; on DPP4, at least 10000 nM.

Take `N#C[C@@H]1C[C@H](F)CN1C(=O)CN1CCC(Nc2ccc3nc(C(F)(F)F)ccc3c2)CC1` [Example 381, (2S,4S)-4-fluoro-1-[2-[4-[[2-(trifluoromethyl)-6-quinolyl]amino]-1-piperidyl]acetyl]pyrrolidine-2-carbonitrile]: the figures for the IC50 on Recombinant human FAP and at DPP4 were 14.3 nM and 10600 nM, respectively.
